Reference: the supplement of paper PMC10307832

Columns and labels:
Test in all cases: relative viability (nuclei count vs DMSO), 5 days (fraction); higher = more cells survive
[1] = compound: Nc1ccn([C@@H]2O[C@H](CO)[C@@H](O)C2(F)F)c(=O)n1 [Gemcitabine] + C[C@]1(O)C[C@@H](c2nc(-c3ccc4ccc(-c5ccccc5)nc4c3)c3c(N)nccn32)C1 [Linsitinib] (partner 1 µM)
Procedure, shortened: (§1)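 Lung cancer cell lines in 1536-well plates were dosed by pin tool the day after seeding, either with one drug alone or with a fixed anchor-drug dose plus five library-drug doses (not always all listed) in √10 steps. After 5 days, cells were fixed and their nuclei stained in one step (final 0.05% Triton X-100, 1% formaldehyde, 1 ug/ml Hoechst), then counted on 4× images. Relative viability is the nuclei count in treated wells divided by that in vehicle wells. Values are medians of duplicate plates.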

[2] = compound: Nc1ccn([C@@H]2O[C@H](CO)[C@@H](O)C2(F)F)c(=O)n1 [Gemcitabine] + CC1(C)CCC(c2ccc(Cl)cc2)=C(CN2CCN(c3ccc(C(=O)NS(=O)(=O)c4ccc(N[C@H](CCN5CCOCC5)CSc5ccccc5)c(S(=O)(=O)C(F)(F)F)c4)cc3)CC2)C1 [Navitoclax] (partner 0.5 µM)
Procedure, shortened: as §1

[3] = compound: Nc1ccn([C@@H]2O[C@H](CO)[C@@H](O)C2(F)F)c(=O)n1 [Gemcitabine] + O=C(CCCCCCC(=O)Nc1ccccc1)NO [Vorinostat] (partner 1 µM)
Procedure, shortened: as §1

[4] = compound: Nc1ccn([C@@H]2O[C@H](CO)[C@@H](O)C2(F)F)c(=O)n1 [Gemcitabine] + Cc1nc(NC(=O)N2CCC[C@H]2C(N)=O)sc1-c1ccnc(C(C)(C)C(F)(F)F)c1 [Alpelisib] (partner 2 µM)
Procedure, shortened: as §1

Cell Line	relative viability ([1]; first compound 0.001 µM)	relative viability ([1]; first compound 0.003162 µM)	relative viability ([1]; first compound 0.01 µM)	relative viability ([1]; first compound 0.03162 µM)	relative viability ([1]; first compound 0.1 µM)	relative viability ([2]; first compound 0.001 µM)	relative viability ([2]; first compound 0.003162 µM)	relative viability ([2]; first compound 0.01 µM)	relative viability ([2]; first compound 0.03162 µM)	relative viability ([2]; first compound 0.1 µM)	relative viability ([3]; first compound 0.001 µM)	relative viability ([3]; first compound 0.003162 µM)	relative viability ([3]; first compound 0.01 µM)	relative viability ([3]; first compound 0.03162 µM)	relative viability ([3]; first compound 0.1 µM)	relative viability ([4]; first compound 0.001 µM)	relative viability ([4]; first compound 0.003162 µM)	relative viability ([4]; first compound 0.01 µM)	relative viability ([4]; first compound 0.03162 µM)	relative viability ([4]; first compound 0.1 µM)
LU99A	0.601	0.597	0.487	0.576	0.554	0.875	0.976	0.667	0.871	0.474	0.509	0.577	0.502	0.523	0.531	0.506	0.576	0.515	0.505	0.481
NCI-H647	1.27	0.382	0.0832	0.0779	0.0445	0.916	0.253	0.0668	0.0642	0.0514	0.435	0.129	0.0559	0.0673	0.0443	1.08	0.174	0.0715	0.0975	0.0551
A-427	1.06	1.03	0.895	0.209	0.138	0.918	0.907	0.719	0.189	0.124	0.826	0.857	0.671	0.321	0.284	1.03	0.99	0.764	0.169	0.0914
COR-L 105	0.88	0.734	0.6	0.278	0.269	0.792	0.581	0.544	0.291	0.263	0.82	0.726	0.56	0.336	0.27	1.22	0.95	0.526	0.261	0.21
NCI-H441	0.513	0.339	0.102	0.11	0.128	0.348	0.211	0.171	0.189	0.102	0.717	0.265	0.182	0.157	0.123	0.602	0.327	0.138	0.149	0.12
NCI-H2126	0.712	0.673	0.692	0.51	0.315	0.821	0.815	0.812	0.728	0.369	0.841	0.837	0.707	0.515	0.275	0.749	0.705	0.728	0.504	0.255
HCC-44	0.628	0.672	0.589	0.166	0.143	0.97	0.993	0.893	0.173	0.154	1.1	1.13	1.04	0.651	0.418	0.808	0.791	0.636	0.238	0.122
NCI-H460	0.714	0.878	0.0967	0.0138	0.0057	1.09	1.05	0.533	0.0127	0.0085	0.855	0.736	0.458	0.0301	0.0175	0.684	0.484	0.0473	0.0144	0.0066
SK-LU-1	1.11	0.51	0.245	0.211	0.219	0.526	0.224	0.0818	0.117	0.118	0.753	0.339	0.267	0.251	0.252	0.745	0.337	0.246	0.224	0.192
NCI-H322M	0.777	0.474	0.3	0.274	0.267	0.96	0.52	0.286	0.207	0.228	0.864	0.408	0.337	0.384	0.44	0.562	0.292	0.245	0.294	0.271
EKVX	1.07	0.727	0.541	0.188	0.118	0.93	0.89	0.0897	0.133	0.0934	0.747	0.686	0.618	0.27	0.217	0.93	0.77	0.454	0.147	0.132
NCI-H1734	0.909	0.806	0.457	0.129	0.13	0.843	0.562	0.195	0.106	0.0836	0.746	0.626	0.119	0.114	0.0915	0.567	0.627	0.213	0.153	0.0967
NCI-H520	1.13	0.917	0.482	0.186	0.131	1.23	1.17	0.35	0.205	0.158	0.728	0.81	0.336	0.211	0.157	0.933	0.897	0.461	0.195	0.142
EPLC-272H	1.21	1.18	0.883	0.673	0.0949	1.14	0.953	0.395	0.0915	0.07	0.25	0.29	0.254	0.112	0.056	1.04	0.809	0.541	0.304	0.1
UMC-11	0.993	1.03	0.963	0.956	0.382	0.376	0.309	0.291	0.21	0.118	0.339	0.505	0.425	0.256	0.152	1.15	0.931	0.885	0.792	0.239
NCI-H1993	0.689	0.723	0.622	0.599	0.579	1.1	1.01	0.583	0.673	0.513	0.723	0.904	0.547	0.471	0.317	0.706	0.642	0.528	0.528	0.491
